# Results reported in patent publication US20090131484A1, “PREVENTIVE OR REMEDY FOR BOWEL DISEASE” (ASTELLAS PHARMA INC, priority 2005, published 2009).
# Assays:
# [1] = test system: cholera toxin-induced intestinal hypersecretion; conditions: mouse, in vivo; for effect on cholera toxin-induced intestinal hypersecretion: iv, 1 mg/kg
# [2] = test system: antigen-induced diarrhea; test: Mouse antigen-induced diarrheal model; format: in vivo; conditions: Balb/c mice, OVA
# Procedure: Balb/c female mice were used in this test. The animals were immunized through intraperitoneal administration of 50 μg of ovalbumin (OVA) and 1 mg of aluminium gel (alum), and after 2 weeks from the first immunization, they were again immunized under the same condition. […] The diarrheal condition was checked 1 hour after the OVA administration.
# [3] = test system: TNBS-induced chronic colitis; test: Rat TNBS-induced chronic colitis model; conditions: Wistar rats
# [4] = test system: oxazolone-induced acute colitis; test: Rat oxazolone-induced acute colitis model; conditions: DA rats
# [5] = test system: T84 cells; test: Chloride-dependent short circuit current (Isc) in human intestinal epithelial cells, Ussing system; format: cell-based; conditions: for effect on forskolin-induced Isc increase: forskolin 10 μM; for effect on thapsigargin-induced continuous Isc increase / effect on transient Isc increase seen before the sustained Isc increase: thapsigargin 1 μM
# Procedure: It is known that water secretion from epithelial cells is correlated with chloride ion secretion, and the effect to water secretion from epithelial cells may be evaluated through chloride-dependent current measurement.
# T84 cells, a human colon epithelial cell-derived cell line, were purchased from American Type Culture Collection (ATCC, USA). T84 cells (3×10^5 cells/well) were cultured on a polyethylenic mesh insert (Transwell® by Corning, USA)) on a 6-well microplate for 10 to 12 days. As the culture medium, 5% bovine calf serum-containing DMEM/F-12 (Gibco, USA) was used. The cultured T84 cells were set in the sample chamber of an Ussing short-circuit current measuring system, and the chloride-dependent short circuit current (Isc) was measured. Isc was induced by adding thapsigargin (1 μM) or forskolin (10 μM) to the T84 cell monolayer specimen at its top on the membrane side thereof. […] In each test, the data obtained by DPC addition were taken as chloride-dependent Isc base line data, and the effect of each test compound was revised.
# [6] = test system: restrictive stress-induced diarrhea; test: Rat stress-induced diarrheal model; format: in vivo; conditions: Wister rats
# Procedure: Wister male rats were used in this test. The animals were restrained in individual restrictive cages for 4 hours and given stress thereby to have diarrhea. […] Each group consisted of 19 to 20 animals. The statistical pharmaceutical potency analysis of the test compound was attained as a significant chi-square test, and its multiplicity was corrected by Bonferroni multiple comparison.
smiles,measurement,setting,value
"CN1C2CCCC1CC(NC(=O)c1nn(C)c3ccccc13)C2 (centres unmarked) [Gra, granisetron, reference compound]",effect on cholera toxin-induced intestinal hypersecretion,[1],effective
"CN(C)C(=O)C(CCN1CCC(O)(c2ccc(Cl)cc2)CC1)(c1ccccc1)c1ccccc1 [Lop, loperamide, reference compound]",effect on cholera toxin-induced intestinal hypersecretion,[1],effective
"C[C@]12C=CC(=O)C=C1CC[C@@H]1[C@@H]2[C@@H](O)C[C@@]2(C)[C@H]1CC[C@]2(O)C(=O)CO [Pred, prednisolone, reference compound]",effect on antigen-induced diarrhea (diarrheal symptom),[2]; 10 mg/kg po 1 hour before OVA,almost completely inhibited
"O=C(O)c1cc(/N=N/c2ccc(S(=O)(=O)Nc3ccccn3)cc2)ccc1O [SSZ, sulfasalazine, reference compound]",effect on TNBS-induced colitis model,[3]; 100 mg/kg po once a day,showed a relieving effect
same,effect relative to that of the compound A (weaker),[3]; TNBS colitis,1/500
"Cc1cc(C)c(C(=O)Nc2ccc(-n3nc(C(F)(F)F)cc3C(F)(F)F)cc2)cn1 [compound A, 4,6-Dimethyl-4′-[3,5-bis(trifluoromethyl)-1H-pyrazol-1-yl]nicotinanilide]",effect on MPO activity exacerbation,[3]; 0.3 mg/kg po once a day,inhibition of MPO activity exacerbation
same,effect on diarrheal symptom,[3]; 0.3 mg/kg po once a day,diarrheal symptom relief
same,effect on intestinal tissue weight increase,[3]; 0.3 mg/kg po once a day,inhibition of intestinal tissue weight increase
same,effect on disease activity index,"[3]; 0.3 mg/kg po once a day, 15 days after colitis induction",significant improvement effect
same,effect on diarrheal symptom,[4]; at least 0.1 mg/kg oral administration,almost completely inhibited
same,effect on MPO activity promotion,"[4]; oral 0.1, 1.0 or 10 mg/kg",MPO activity promotion inhibition
same,effect on diarrheal symptom,"[4]; oral 0.1, 1.0 or 10 mg/kg",diarrheal symptom relief
same,effect on intestinal tissue weight increase,"[4]; oral 0.1, 1.0 or 10 mg/kg",intestinal tissue weight increase inhibition
same,effect on disease activity index,"[4]; oral 0.1, 1.0 or 10 mg/kg, 24 hours after colitis onset",significant improvement effect
same,dose for diarrhea-inhibiting effect relative to dose for colitis symptom relieving effect,[4]; oxazolone colitis,about 1/100
same,effect on forskolin-induced Isc increase,[5],dose-dependently inhibited
same,effect on thapsigargin-induced continuous Isc increase,[5],inhibited
same,effect on transient Isc increase seen before the sustained Isc increase,[5],did not affect
same,effect on incidence rate of antigen-induced diarrhea,[2]; 3 or 10 mg/kg po 1 hour before OVA,dose-dependently inhibited
same,effect on incidence rate of restrictive stress-induced diarrhea,[6]; 10 mg/kg oral administration group,significant inhibition
same,effect on incidence rate of restrictive stress-induced diarrhea,[6]; 1.0 or 10 mg/kg po 24 hours and 1 hour before 4 hours restraint,dose-dependently inhibited
same,effect on cholera toxin-induced intestinal hypersecretion (ileal loop weight per unit length),[1]; po,dose-dependently inhibited
same,oral dose at which inhibition of cholera toxin-induced intestinal hypersecretion was significant,[1]; po,≥ 0.3 mg/kg
"Clc1ccc(COC(Cn2ccnc2)c2ccc(Cl)cc2Cl)cc1 (centres unmarked) [econazole, reference compound]",effect on forskolin-induced Isc increase,[5],dose-dependently inhibited
same,effect on thapsigargin-induced continuous Isc increase,[5],inhibited
same,effect on transient Isc increase seen before the sustained Isc increase,[5],did not affect
